Laboratory results reported in US7935702B2, “Substituted biaryl quinolin-4-ylamine analogues” (Neurogen Corporation, priority 2004, dated 2011).
pIC50: −log10 of the molar value.

target: T1, human capsaicin receptor (Homo sapiens, UniProt Q8NER1); assay: Calcium mobilization assay, determination of antagonist activity (Example 6); assay type: cell-based; design: IC50 determined as described in Example 6: scale not given here; details: Table I; IC50 determined as described in Example 6; read-out: IC50
T1 construct: expressed in transfected cells
Protocol: A cDNA encoding full length human capsaicin receptor (SEQ ID NO:1, 2 or 3 of U.S. Pat. No. 6,482,611) is subcloned in the plasmid pBK-CMV (Stratagene, La Jolla, Calif.) for recombinant expression in mammalian cells.
Human embryonic kidney (HEK293) cells are transfected with the pBK-CMV expression construct encoding the full length human capsaicin receptor using standard methods. The transfected cells are selected for two weeks in media containing G418 (400 μg/ml) to obtain a pool of stably transfected cells. Independent clones are isolated from this pool by limiting dilution to obtain clonal stable cell lines for use in subsequent experiments.
This Example illustrates representative calcium mobilization assays for use in evaluating test compounds for agonist and antagonist activity.
Cells transfected with expression plasmids (as described in Example 4) and thereby expressing human capsaicin receptor are seeded and grown to 70-90% confluency in FALCON black-walled, clear-bottomed 96-well plates (#3904, BECTON-DICKINSON, Franklin Lakes, N.J.). The culture medium is emptied from the 96 well plates and FLUO-3 AM calcium sensitive dye (Molecular Probes, Eugene, Oreg.) is added to each well (dye solution: 1 mg FLUO-3 AM, 440 μL DMSO and 440 μl 20% pluronic acid in DMSO, diluted 1:250 in Krebs-Ringer HEPES (KRH) buffer (25 mM HEPES, 5 mM KCl, 0.96 mM NaH2PO4, 1 mM MgSO4, 2 mM CaCl2, 5 mM glucose, 1 mM probenecid, pH 7.4), 50 μl diluted solution per well). Plates are covered with aluminum foil and incubated at 37° C. for 1-2 hours in an environment containing 5% CO2. After the incubation, the dye is emptied from the plates, and the cells are washed once with KRH buffer, and resuspended in KRH buffer.
To measure the ability of a test compound to agonize or antagonize a calcium mobilization response in cells expressing capsaicin receptors to capsaicin or other vanilloid agonist, the EC50 of the agonist capsaicin is first determined. An additional 20 μl of KRH buffer and 1 μl DMSO is added to each well of cells, prepared as described above. 100 μl capsaicin in KRH buffer is automatically transferred by the FLIPR instrument to each well. Capsaicin-induced calcium mobilization is monitored using either FLUOROSKAN ASCENT (Labsystems; Franklin, Mass.) or FLIPR (fluorometric imaging plate reader system; Molecular Devices, Sunnyvale, Calif.) instruments. Data obtained between 30 and 60 seconds after agonist application are used to generate an 8-point concentration response curve, with final capsaicin concentrations of 1 nM to 3 μM. KALEIDAGRAPH software (Synergy Software, Reading, Pa.) is used to fit the data to the equation: y=a*(1/(1+(b/x)^c)) to determine the 50% excitatory concentration (EC50) for the response. In this equation, y is the maximum fluorescence signal, x is the concentration of the agonist or antagonist (in this case, capsaicin), a is the Emax, b corresponds to the EC50 value and c is the Hill coefficient. Determination of Agonist Activity
Test compounds are dissolved in DMSO, diluted in 20 μl KRH buffer so that the final concentration of test compounds in the assay well is between 1 μM and 5 μM, and added to cells prepared as described above. The 96 well plates containing prepared cells and test compounds are incubated in the dark, at room temperature for 0.5 to 6 hours. It is important that the incubation not continue beyond 6 hours. Just prior to determining the fluorescence response, 100 μl capsaicin in KRH buffer at twice the EC50 concentration determined as described above is automatically added by the FLIPR instrument to each well of the 96 well plate for a final sample volume of 200 μl and a final capsaicin concentration equal to the EC50. The final concentration of test compounds in the assay wells is between 1 μM and 5 μM. […]

T1 sequence (Q8NER1 whole entry): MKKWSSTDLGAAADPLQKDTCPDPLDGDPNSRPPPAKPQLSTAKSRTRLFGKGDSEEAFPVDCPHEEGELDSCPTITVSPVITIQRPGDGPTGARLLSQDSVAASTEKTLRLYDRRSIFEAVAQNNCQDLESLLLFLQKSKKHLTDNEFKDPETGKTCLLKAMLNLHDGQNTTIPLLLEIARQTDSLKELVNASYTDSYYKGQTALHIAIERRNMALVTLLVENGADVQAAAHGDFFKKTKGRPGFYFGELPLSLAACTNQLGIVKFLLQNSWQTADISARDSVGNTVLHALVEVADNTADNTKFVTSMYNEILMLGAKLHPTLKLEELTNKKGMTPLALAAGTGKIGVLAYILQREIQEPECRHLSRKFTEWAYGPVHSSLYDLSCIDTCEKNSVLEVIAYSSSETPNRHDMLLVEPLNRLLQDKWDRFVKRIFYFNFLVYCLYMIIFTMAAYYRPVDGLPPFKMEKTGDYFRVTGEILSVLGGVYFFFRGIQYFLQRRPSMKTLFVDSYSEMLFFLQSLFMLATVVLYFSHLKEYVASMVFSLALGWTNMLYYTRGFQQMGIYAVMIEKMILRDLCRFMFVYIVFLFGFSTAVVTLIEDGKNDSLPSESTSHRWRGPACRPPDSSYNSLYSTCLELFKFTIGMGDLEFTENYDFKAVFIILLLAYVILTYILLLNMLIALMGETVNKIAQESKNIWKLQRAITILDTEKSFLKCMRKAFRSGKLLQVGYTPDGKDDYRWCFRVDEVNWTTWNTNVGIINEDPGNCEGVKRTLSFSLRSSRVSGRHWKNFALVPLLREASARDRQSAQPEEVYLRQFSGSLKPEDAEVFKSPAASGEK

| Structure (SMILES) | pIC50 |
| --- | --- |
| Oc1ccc(C(F)(F)F)c(-c2ccc3c(Nc4ccc(C(F)(F)F)cn4)ccnc3n2)n1 [compound 21, 5-Trifluoromethyl-6-[5-(5-trifluoromethyl-pyridin-2-ylamino)-[1,8]naphthyridin-2-yl]-pyridin-2-ol] | > 6.00 |
| O=C(O)c1cnc(-c2ccc3c(Nc4ccc(C(F)(F)F)cn4)ccnc3n2)c(C(F)(F)F)c1 [compound 22, 5-Trifluoromethyl-6-[5-(5-trifluoromethyl-pyridin-2-ylamino)-[1,8]naphthyridin-2-yl]-nicotinic acid] | > 6.00 |
| FC(F)(F)c1ccc(Nc2ccnc3nc(-c4nc(Cl)ccc4C(F)(F)F)ccc23)nc1 [compound 23, [7-(6-Chloro-3-trifluoromethyl-pyridin-2-yl)-[1,8]naphthyridin-4-yl]-(5-trifluoromethyl-pyridin-2-yl)-amine] | > 6.00 |
| N#Cc1ccc(C(F)(F)F)c(-c2ccc3c(Nc4ccc(C(F)(F)F)cn4)ccnc3n2)n1 [compound 24, 5-Trifluoromethyl-6-[5-(5-trifluoromethyl-pyridin-2-ylamino)-[1,8]naphthyridin-2-yl]-pyridine-2-carbonitrile] | > 6.00 |
| NC(=O)c1ccc(C(F)(F)F)c(-c2ccc3c(Nc4ccc(C(F)(F)F)cn4)ccnc3n2)n1 [compound 25, 5-Trifluoromethyl-6-[5-(5-trifluoromethyl-pyridin-2-ylamino)-[1,8]naphthyridin-2-yl]-pyridine-2-carboxylic acid amide] | > 6.00 |
| O=C(O)c1ccc(C(F)(F)F)c(-c2ccc3c(Nc4ccc(C(F)(F)F)cn4)ccnc3n2)n1 [compound 26, 5-Trifluoromethyl-6-[5-(5-trifluoromethyl-pyridin-2-ylamino)-[1,8]naphthyridin-2-yl]-pyridine-2-carboxylic acid] | > 6.00 |
| Cc1ccc(C(F)(F)F)c(-c2ccc3c(Nc4ccc(C(F)(F)F)cn4)ccnc3n2)n1 [compound 28, [7-(6-Methyl-3-trifluoromethyl-pyridin-2-yl)-[1,8]naphthyridin-4-yl]-(5-trifluoromethyl-pyridin-2-yl)-amine] | > 6.00 |
| CC(=O)c1ccc(C(F)(F)F)c(-c2ccc3c(Nc4ccc(C(F)(F)F)cn4)ccnc3n2)n1 [compound 29, 1-{5-Trifluoromethyl-6-[5-(5-trifluoromethyl-pyridin-2-ylamino)-[1,8]naphthyridin-2-yl]-pyridin-2-yl}-ethanone] | > 6.00 |
| FC(F)(F)c1ccc(Nc2ccnc3nc(-c4ncc(Br)cc4C(F)(F)F)cnc23)nc1 [compound 31, [3-(5-Bromo-3-trifluoromethyl-pyridin-2-yl)-pyrido[2,3-b]pyrazin-8-yl]-(5-trifluoromethyl-pyridin-2-yl)-amine] | > 6.00 |
| N#Cc1cnc(-c2cnc3c(Nc4ccc(C(F)(F)F)cn4)ccnc3n2)c(C(F)(F)F)c1 [compound 32, 5-Trifluoromethyl-6-[8-(5-trifluoromethyl-pyridin-2-ylamino)-pyrido[2,3-b]pyrazin-3-yl]-nicotinonitrile] | > 6.00 |
| O=C(O)c1cnc(-c2cnc3c(Nc4ccc(C(F)(F)F)cn4)ccnc3n2)c(C(F)(F)F)c1 [compound 33, 5-(trifluoromethyl)-6-(8-{[5-(trifluoromethyl)-2-pyridinyl]amino}pyrido[2,3-b]pyrazin-3-yl)nicotinic acid] | > 6.00 |

same assay, conditions: cells expressing human capsaicin receptor; capsaicin at EC50

| Structure (SMILES) | IC50 determined as described in Example 6 |
| --- | --- |
| N#Cc1cnc(-c2cnc3c(Nc4ccc(C(F)(F)F)cn4)ccnc3n2)c(C(F)(F)F)c1 [Compound 11, 5-(Trifluoromethyl)-6-(8-(5-(trifluoromethyl)pyridin-2-ylamino)pyrido[2,3-b]pyrazin-3-yl)nicotinonitrile] | less |

same assay, conditions: cells expressing human capsaicin receptor; capsaicin at EC50; read-out: IC50 determined as described in Example 6

| Structure (SMILES) | pIC50 |
| --- | --- |
| Cc1cc(F)cnc1-c1ccc2c(Nc3ccc(C(F)(F)F)cn3)ccnc2n1 [Compound 2, 7-(5-Fluoro-3-methylpyridin-2-yl)-N-(5-(trifluoromethyl)ipyridin-2-yl)-1,8-naphthyridin-4-amine] | > 6.00 |
| Nc1cnc(-c2ccc3c(Nc4ccc(C(F)(F)F)cn4)ccnc3n2)c(C(F)(F)F)c1 [Compound 3, 7-(5-Amino-3-(trifluoromethyl)pyridin-2-yl)-N-(5-(trifluoromethyl)pyridin-2-yl)-1,8-naphthyridin-4-amine] | > 6.00 |
| NC(=O)c1cnc(-c2cnc3c(Nc4ccc(C(F)(F)F)cn4)ccnc3n2)c(C(F)(F)F)c1 [Compound 4, 5-Trifluoromethyl-6-[8-(5-trifluoromethyl-pyridin-2-ylamino)-pyrido[2,3-b]pyrazin-3-yl]-nicotinamide] | > 6.00 |
| COc1ccc(C(F)(F)F)c(-c2ccc3c(Nc4ccc(C(F)(F)F)cn4)ccnc3n2)n1 [Compound 5, [7-(6-Methoxy-3-trifluoromethyl-pyridin-2-yl)-[1,8]naphthyridin-4-yl]-(5-trifluoromethyl-pyridin-2-yl)-amine] | > 6.00 |
| COc1ccc(C(F)(F)F)c(-c2ccc3c(Nc4ncc(C(F)(F)F)cn4)ccnc3n2)n1 [Compound 6, [7-(6-Methoxy-3-trifluoromethyl-pyridin-2-yl)-[1,8]naphthyridin-4-yl]-(5-trifluoromethyl-pyrimidin-2-yl)-amine] | > 6.00 |
| N#Cc1cnc(-c2ccc3c(Nc4ccc(C(F)(F)F)cn4)ccnc3n2)c(C(F)(F)F)c1 [Compound 7, 5-Trifluoromethyl-6-[5-(5-trifluoromethyl-pyridin-2-ylamino)-[1,8]naphthyridin-2-yl]-nicotinonitrile] | > 6.00 |
| NC(=O)c1cnc(-c2ccc3c(Nc4ccc(C(F)(F)F)cn4)ccnc3n2)c(C(F)(F)F)c1 [Compound 8, 5-Trifluoromethyl-6-[5-(5-trifluoromethyl-pyridin-2-ylamino)-[1,8]naphthyridin-2-yl]-nicotinamide] | > 6.00 |
| CCOc1nc(Nc2ccnc3nc(-c4ncc(C(N)=O)cc4C(F)(F)F)cnc23)ccc1C(F)(F)F [Compound 9, 6-(8-(6-Ethoxy-5-(trifluoromethyl)pyridin-2-ylamino)pyrido[2,3-b]pyrazin-3-yl)-5-(trifluoromethyl)nicotinamide] | > 6.00 |
| FC(F)(F)c1ccc(Nc2ccnc3nc(-c4ncc(Br)cc4C(F)(F)F)cnc23)nc1 [Compound 10, 3-(5-Bromo-3-(trifluoromethyl)pyridin-2-yl)-N-(5-(trifluoromethyl)pyridin-2-yl)pyrido[2,3-b]pyrazin-8-amine] | > 6.00 |
| O=C(O)c1cnc(-c2cnc3c(Nc4ccc(C(F)(F)F)cn4)ccnc3n2)c(C(F)(F)F)c1 [Compound 13, 5-(Trifluoromethyl)-6-(8-(5-(trifluoromethyl)pyridin-2-ylamino)pyrido[2,3-b]pyrazin-3-yl)nicotinic acid] | > 6.00 |
| NC(=O)c1cnc(-c2cnc3c(Nc4cnc5ccccc5n4)ccnc3n2)c(C(F)(F)F)c1 [Compound 14, 6-(8-(Quinoxalin-2-ylamino)pyrido[2,3-b]pyrazin-3-yl)-5-(trifluoromethyl)nicotinamide] | > 6.00 |
| NC(=O)c1cnc(-c2cnc3c(Nc4cnc(C(F)(F)F)cn4)ccnc3n2)c(C(F)(F)F)c1 [Compound 15, 5-(Trifluoromethyl)-6-(8-(5-(trifluoromethyl)pyrazin-2-ylamino)pyrido[2,3-b]pyrazin-3-yl)nicotinamide] | > 6.00 |
| CCOc1cc(C(F)(F)F)c(-c2cnc3c(Nc4ccc(C(F)(F)F)cn4)ccnc3n2)nn1 [Compound 16] | > 6.00 |
| FC(F)(F)c1ccc(Nc2ccnc3nc(-c4nnc(N5CCOCC5)cc4C(F)(F)F)cnc23)nc1 [Compound 19] | > 6.00 |
| FC(F)(F)c1ccc(Nc2ccnc3nc(-c4nnc(NCc5cccnc5)cc4C(F)(F)F)cnc23)nc1 [Compound 20] | > 6.00 |
